Laboratory results as given in article PMC9681850, “Structural basis of synthetic agonist activation of the nuclear receptor REV-ERB” (Nature Communications, 2022).

What was measured:
[1] = tested on: REV-ERBα F497A, F443A, L480A, F439A, and F484A; assay: two-hybrid reporter assay with mutant receptors; format: cell-based, human; conditions: F484A vs WT
Description: The removal of the bulkier Phe488 sidechain may allow for the ligand binding pocket to wrap around the ligand more tightly, which may explain the higher activity of this mutant REV-ERB.
The NCoR-Vp16 plasmid and REV-ERBα/β-FL GAL4-DBD wild-type or point mutation plasmids were incubated with the transfection agent, Lipofectamine 2000. GFP plasmid was also in the transfection mix to confirm transfection efficiency. HEK cells were plated in 10 cm dishes for western blot analysis, and HEK UAS-luc cells were plated in 96 well plates for luciferase assay analysis. Prior to cellular adherence, transfection mix was added. The cells and transfection mix were incubated at 37 °C in a humidified atmosphere of 5% CO2. The transfection incubation lasted overnight for luciferase assays and 48 h for protein isolation/western blot analysis. For luciferase assays, REV-ERB agonists were added in an 11-point serial dilution the day following overnight transfection. Cells were incubated with the compound for 24 h, prior to luciferin addition and luminescence read out.

[2] = target: T1, 5-HT1A (Homo sapiens, UniProt P08908); assay: PDSP radioligand binding assay; conditions: read-out: RLBA Ki
T1 construct: NIMH Psychoactive Drug Screening Program (assay performed there)
Text: (§1) Receptor RLBA Ki Receptor activity
(§2) Suppl ementary Tabl e 1. Speci fi ci ty of STL1267. […]

[3] = target: T2, 5-HT1B (Homo sapiens, UniProt P28222); assay: PDSP radioligand binding assay; conditions: read-out: RLBA Ki
T2 construct: NIMH Psychoactive Drug Screening Program (assay performed there)
T2 sequence (P28222 whole entry, species assumed): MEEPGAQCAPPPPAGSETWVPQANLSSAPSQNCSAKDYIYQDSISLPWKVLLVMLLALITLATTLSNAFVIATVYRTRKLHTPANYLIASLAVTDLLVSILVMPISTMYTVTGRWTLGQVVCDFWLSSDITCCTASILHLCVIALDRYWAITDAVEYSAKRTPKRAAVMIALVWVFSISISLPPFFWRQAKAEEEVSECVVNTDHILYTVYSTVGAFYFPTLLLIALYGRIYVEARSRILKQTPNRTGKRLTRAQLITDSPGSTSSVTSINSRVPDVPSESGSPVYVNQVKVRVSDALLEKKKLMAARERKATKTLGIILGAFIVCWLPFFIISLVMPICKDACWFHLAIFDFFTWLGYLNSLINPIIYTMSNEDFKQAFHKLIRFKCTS
Text: as §1, §2

[4] = target: T3, 5-HT1D (Homo sapiens, UniProt P28221); assay: PDSP radioligand binding assay; conditions: read-out: RLBA Ki
T3 construct: NIMH Psychoactive Drug Screening Program (assay performed there)
Text: as §1, §2

[5] = target: T4, 5-HT2A (Homo sapiens, UniProt P28223); assay: PDSP radioligand binding assay; conditions: read-out: RLBA Ki
T4 construct: NIMH Psychoactive Drug Screening Program (assay performed there)
Text: as §1, §2

[6] = target: T5, 5-HT2B (Homo sapiens, UniProt P41595); assay: PDSP radioligand binding assay; conditions: read-out: RLBA Ki
T5 construct: NIMH Psychoactive Drug Screening Program (assay performed there)
Text: as §1, §2

[7] = target: T6, 5-HT2C (Homo sapiens, UniProt P28335); assay: PDSP radioligand binding assay; conditions: read-out: RLBA Ki
T6 construct: NIMH Psychoactive Drug Screening Program (assay performed there)
T6 sequence (P28335 33-458, species assumed): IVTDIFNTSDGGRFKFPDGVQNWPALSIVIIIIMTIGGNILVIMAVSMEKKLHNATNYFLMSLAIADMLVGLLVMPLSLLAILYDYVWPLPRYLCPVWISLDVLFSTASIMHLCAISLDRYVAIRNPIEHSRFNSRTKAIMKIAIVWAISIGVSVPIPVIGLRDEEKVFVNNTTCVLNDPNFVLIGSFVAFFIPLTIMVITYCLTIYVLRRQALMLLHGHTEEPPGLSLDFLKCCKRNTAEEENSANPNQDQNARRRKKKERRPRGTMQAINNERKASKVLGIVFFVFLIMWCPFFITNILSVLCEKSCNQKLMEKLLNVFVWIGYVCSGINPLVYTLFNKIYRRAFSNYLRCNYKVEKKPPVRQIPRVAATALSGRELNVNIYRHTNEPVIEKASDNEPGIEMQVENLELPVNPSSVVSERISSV
Text: as §1, §2

[8] = target: T7, 5-HT3 (Homo sapiens, UniProt P46098); assay: PDSP radioligand binding assay; conditions: read-out: RLBA Ki
T7 construct: NIMH Psychoactive Drug Screening Program (assay performed there)
Text: as §1, §2

[9] = target: T8, 5-HT5A (Homo sapiens, UniProt P47898); assay: PDSP radioligand binding assay; conditions: read-out: RLBA Ki
T8 construct: NIMH Psychoactive Drug Screening Program (assay performed there)
Text: as §1, §2

[10] = target: T9, 5-HT6 (Homo sapiens, UniProt P50406); assay: PDSP radioligand binding assay; conditions: read-out: RLBA Ki
T9 construct: NIMH Psychoactive Drug Screening Program (assay performed there)
Text: as §1, §2

[11] = target: T10, 5-HT7A (Homo sapiens, UniProt P34969); assay: PDSP radioligand binding assay; conditions: read-out: RLBA Ki
T10 construct: NIMH Psychoactive Drug Screening Program (assay performed there)
Text: as §1, §2

[12] = target: T11, Alpha1A (Homo sapiens, UniProt P35348); assay: PDSP radioligand binding assay; conditions: read-out: RLBA Ki
T11 construct: NIMH Psychoactive Drug Screening Program (assay performed there)
Text: as §1, §2

[13] = target: T12, Alpha1B (Homo sapiens, UniProt P35368); assay: PDSP radioligand binding assay; conditions: read-out: RLBA Ki
T12 construct: NIMH Psychoactive Drug Screening Program (assay performed there)
T12 sequence (P35368 whole entry): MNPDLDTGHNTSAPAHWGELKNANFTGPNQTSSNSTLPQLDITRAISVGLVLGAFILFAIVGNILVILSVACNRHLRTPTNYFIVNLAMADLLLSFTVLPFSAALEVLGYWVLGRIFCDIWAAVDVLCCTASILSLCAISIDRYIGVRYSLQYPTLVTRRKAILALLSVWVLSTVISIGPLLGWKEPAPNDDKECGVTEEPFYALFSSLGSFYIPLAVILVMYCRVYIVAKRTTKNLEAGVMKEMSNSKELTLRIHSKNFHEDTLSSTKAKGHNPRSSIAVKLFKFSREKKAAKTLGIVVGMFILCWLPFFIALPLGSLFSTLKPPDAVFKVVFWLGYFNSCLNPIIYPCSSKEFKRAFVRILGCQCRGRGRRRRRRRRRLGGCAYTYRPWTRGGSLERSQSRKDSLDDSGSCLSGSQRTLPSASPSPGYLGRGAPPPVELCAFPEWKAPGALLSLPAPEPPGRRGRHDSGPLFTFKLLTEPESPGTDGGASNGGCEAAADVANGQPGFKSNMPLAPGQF
Text: as §1, §2

[14] = target: T13, Alpha1D (Homo sapiens, UniProt P25100); assay: PDSP radioligand binding assay; conditions: read-out: RLBA Ki
T13 construct: NIMH Psychoactive Drug Screening Program (assay performed there)
T13 sequence (P25100 whole entry): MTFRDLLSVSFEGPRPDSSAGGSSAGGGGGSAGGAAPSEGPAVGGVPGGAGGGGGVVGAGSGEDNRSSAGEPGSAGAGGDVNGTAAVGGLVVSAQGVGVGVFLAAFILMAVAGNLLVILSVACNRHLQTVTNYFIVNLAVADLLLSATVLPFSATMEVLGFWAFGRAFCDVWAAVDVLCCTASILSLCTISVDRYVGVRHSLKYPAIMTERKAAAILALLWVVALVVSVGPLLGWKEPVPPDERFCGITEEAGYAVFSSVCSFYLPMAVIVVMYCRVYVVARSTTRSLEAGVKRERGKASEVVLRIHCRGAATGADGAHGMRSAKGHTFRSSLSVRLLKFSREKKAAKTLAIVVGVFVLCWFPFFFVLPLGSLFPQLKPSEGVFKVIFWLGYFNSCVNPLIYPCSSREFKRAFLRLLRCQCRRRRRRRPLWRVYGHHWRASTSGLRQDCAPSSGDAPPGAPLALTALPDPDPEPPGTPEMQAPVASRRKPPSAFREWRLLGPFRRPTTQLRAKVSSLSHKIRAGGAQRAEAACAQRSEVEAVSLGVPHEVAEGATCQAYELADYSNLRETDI
Text: as §1, §2

[15] = target: T14, Alpha2A (Homo sapiens, UniProt P08913); assay: PDSP radioligand binding assay; conditions: read-out: RLBA Ki
T14 construct: NIMH Psychoactive Drug Screening Program (assay performed there)
T14 sequence (P08913 whole entry): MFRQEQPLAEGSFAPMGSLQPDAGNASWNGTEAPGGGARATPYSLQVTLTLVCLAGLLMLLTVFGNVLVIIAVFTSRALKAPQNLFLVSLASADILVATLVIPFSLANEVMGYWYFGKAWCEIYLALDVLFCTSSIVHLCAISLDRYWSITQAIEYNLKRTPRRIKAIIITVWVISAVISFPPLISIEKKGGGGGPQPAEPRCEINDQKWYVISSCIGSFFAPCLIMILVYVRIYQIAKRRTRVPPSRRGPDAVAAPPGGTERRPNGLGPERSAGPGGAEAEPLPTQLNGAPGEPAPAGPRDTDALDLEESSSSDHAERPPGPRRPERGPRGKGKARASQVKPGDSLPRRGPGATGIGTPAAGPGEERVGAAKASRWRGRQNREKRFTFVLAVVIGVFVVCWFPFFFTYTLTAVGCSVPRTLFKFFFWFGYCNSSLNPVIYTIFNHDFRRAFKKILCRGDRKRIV
Text: as §1, §2

[16] = target: T15, Alpha2B (Homo sapiens, UniProt P18089); assay: PDSP radioligand binding assay; conditions: read-out: RLBA Ki
T15 construct: NIMH Psychoactive Drug Screening Program (assay performed there)
Text: as §1, §2

[17] = target: T16, Alpha2C (Homo sapiens, UniProt P18825); assay: PDSP radioligand binding assay; conditions: read-out: RLBA Ki
T16 construct: NIMH Psychoactive Drug Screening Program (assay performed there)
Text: as §1, §2

[18] = target: BZP Rat Brain Site; assay: PDSP radioligand binding assay; conditions: read-out: RLBA Ki
Text: as §1, §2

[19] = target: T17, Beta1 (Homo sapiens, UniProt P08588); assay: PDSP radioligand binding assay; conditions: read-out: RLBA Ki
T17 construct: NIMH Psychoactive Drug Screening Program (assay performed there)
Text: as §1, §2

[20] = target: Beta2 (Homo sapiens, UniProt P07550); assay: PDSP radioligand binding assay; conditions: read-out: RLBA Ki
Text: as §1, §2

[21] = target: Beta3 (Homo sapiens, UniProt P13945); assay: PDSP radioligand binding assay; conditions: read-out: RLBA Ki
Sequence of Beta3 (P13945 whole entry): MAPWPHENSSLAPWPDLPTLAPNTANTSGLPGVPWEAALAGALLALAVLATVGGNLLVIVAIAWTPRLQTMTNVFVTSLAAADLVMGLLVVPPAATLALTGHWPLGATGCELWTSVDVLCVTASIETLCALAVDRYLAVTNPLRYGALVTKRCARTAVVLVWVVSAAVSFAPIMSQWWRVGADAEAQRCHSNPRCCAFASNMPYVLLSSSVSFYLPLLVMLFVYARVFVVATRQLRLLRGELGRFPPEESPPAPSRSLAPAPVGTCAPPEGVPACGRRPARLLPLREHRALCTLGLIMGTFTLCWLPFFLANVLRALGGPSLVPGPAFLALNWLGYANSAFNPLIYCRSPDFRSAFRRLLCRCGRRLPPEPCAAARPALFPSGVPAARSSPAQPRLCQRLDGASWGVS
Text: as §1, §2

[22] = target: D1 (Homo sapiens, UniProt P21728); assay: PDSP radioligand binding assay; conditions: read-out: RLBA Ki
Text: as §1, §2

[23] = target: D2 (Homo sapiens, UniProt P14416); assay: PDSP radioligand binding assay; conditions: read-out: RLBA Ki
Text: as §1, §2

[24] = target: D3 (Homo sapiens, UniProt P35462); assay: PDSP radioligand binding assay; conditions: read-out: RLBA Ki
Text: as §1, §2

[25] = target: D4 (Homo sapiens, UniProt P21917); assay: PDSP radioligand binding assay; conditions: read-out: RLBA Ki
Text: as §1, §2

[26] = target: D5 (Homo sapiens, UniProt P21918); assay: PDSP radioligand binding assay; conditions: read-out: RLBA Ki
Text: as §1, §2

[27] = target: DOR (Homo sapiens, UniProt P41143); assay: PDSP radioligand binding assay; conditions: read-out: RLBA Ki
Text: as §1, §2

[28] = target: GABAA; assay: PDSP radioligand binding assay; conditions: read-out: RLBA Ki
Text: as §1, §2

[29] = target: H1 (Homo sapiens, UniProt P35367); assay: PDSP radioligand binding assay; conditions: read-out: RLBA Ki
Text: as §1, §2

[30] = target: H2 (Homo sapiens, UniProt P25021); assay: PDSP radioligand binding assay; conditions: read-out: RLBA Ki
Text: as §1, §2

[31] = target: H4 (Homo sapiens, UniProt Q9H3N8); assay: PDSP radioligand binding assay; conditions: read-out: RLBA Ki
Sequence of H4 (Q9H3N8 whole entry): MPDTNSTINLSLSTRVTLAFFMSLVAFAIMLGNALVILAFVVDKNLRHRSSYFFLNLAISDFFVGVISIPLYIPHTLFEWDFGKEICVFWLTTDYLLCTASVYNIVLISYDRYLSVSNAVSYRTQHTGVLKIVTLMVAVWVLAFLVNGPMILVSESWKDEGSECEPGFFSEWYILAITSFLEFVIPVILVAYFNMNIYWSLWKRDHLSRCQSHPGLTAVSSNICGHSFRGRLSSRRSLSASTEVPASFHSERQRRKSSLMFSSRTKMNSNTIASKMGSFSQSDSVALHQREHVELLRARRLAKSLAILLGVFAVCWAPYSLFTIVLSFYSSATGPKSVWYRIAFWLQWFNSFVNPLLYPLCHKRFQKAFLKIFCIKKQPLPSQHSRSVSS
Text: as §1, §2

[32] = target: M1 (Homo sapiens, UniProt P11229); assay: PDSP radioligand binding assay; conditions: read-out: RLBA Ki
Text: as §1, §2

[33] = target: M2 (Homo sapiens, UniProt P08172); assay: PDSP radioligand binding assay; conditions: read-out: RLBA Ki
Text: as §1, §2

[34] = target: M3 (Homo sapiens, UniProt P20309); assay: PDSP radioligand binding assay; conditions: read-out: RLBA Ki
Sequence of M3 (P20309 whole entry): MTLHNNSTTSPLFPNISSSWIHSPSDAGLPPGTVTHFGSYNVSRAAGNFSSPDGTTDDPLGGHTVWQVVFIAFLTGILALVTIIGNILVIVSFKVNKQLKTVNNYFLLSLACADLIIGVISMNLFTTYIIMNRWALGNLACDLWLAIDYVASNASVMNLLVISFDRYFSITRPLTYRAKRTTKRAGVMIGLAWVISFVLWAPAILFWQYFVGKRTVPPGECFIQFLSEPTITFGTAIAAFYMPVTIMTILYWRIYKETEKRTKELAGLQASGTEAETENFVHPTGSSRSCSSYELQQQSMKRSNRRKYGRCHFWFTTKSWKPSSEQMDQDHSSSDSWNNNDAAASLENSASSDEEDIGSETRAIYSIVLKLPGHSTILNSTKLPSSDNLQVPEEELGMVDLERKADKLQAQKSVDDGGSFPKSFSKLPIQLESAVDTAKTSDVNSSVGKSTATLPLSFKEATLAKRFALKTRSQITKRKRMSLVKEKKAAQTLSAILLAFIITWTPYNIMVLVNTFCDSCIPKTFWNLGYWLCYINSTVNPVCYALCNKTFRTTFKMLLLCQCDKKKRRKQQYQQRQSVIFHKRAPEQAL
Text: as §1, §2

[35] = target: M4 (Homo sapiens, UniProt P08173); assay: PDSP radioligand binding assay; conditions: read-out: RLBA Ki
Text: as §1, §2

[36] = target: M5 (Homo sapiens, UniProt P08912); assay: PDSP radioligand binding assay; conditions: read-out: RLBA Ki
Sequence of M5 (P08912 whole entry): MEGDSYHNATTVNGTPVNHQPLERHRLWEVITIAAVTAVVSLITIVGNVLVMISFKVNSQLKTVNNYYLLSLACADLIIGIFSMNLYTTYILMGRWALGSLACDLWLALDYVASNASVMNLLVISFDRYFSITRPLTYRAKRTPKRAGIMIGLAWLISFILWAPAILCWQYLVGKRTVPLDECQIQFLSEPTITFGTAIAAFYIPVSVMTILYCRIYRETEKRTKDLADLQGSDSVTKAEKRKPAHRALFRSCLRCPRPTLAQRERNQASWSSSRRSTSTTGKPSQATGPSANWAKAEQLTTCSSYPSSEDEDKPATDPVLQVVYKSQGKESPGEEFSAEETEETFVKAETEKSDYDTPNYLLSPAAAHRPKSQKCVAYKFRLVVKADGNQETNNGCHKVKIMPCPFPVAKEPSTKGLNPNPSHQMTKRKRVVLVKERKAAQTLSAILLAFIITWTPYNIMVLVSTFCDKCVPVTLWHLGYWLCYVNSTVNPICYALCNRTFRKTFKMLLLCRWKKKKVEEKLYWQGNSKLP
Text: as §1, §2

[37] = target: MOR (Homo sapiens, UniProt P35372); assay: PDSP radioligand binding assay; conditions: read-out: RLBA Ki
Sequence of MOR (P35372 whole entry): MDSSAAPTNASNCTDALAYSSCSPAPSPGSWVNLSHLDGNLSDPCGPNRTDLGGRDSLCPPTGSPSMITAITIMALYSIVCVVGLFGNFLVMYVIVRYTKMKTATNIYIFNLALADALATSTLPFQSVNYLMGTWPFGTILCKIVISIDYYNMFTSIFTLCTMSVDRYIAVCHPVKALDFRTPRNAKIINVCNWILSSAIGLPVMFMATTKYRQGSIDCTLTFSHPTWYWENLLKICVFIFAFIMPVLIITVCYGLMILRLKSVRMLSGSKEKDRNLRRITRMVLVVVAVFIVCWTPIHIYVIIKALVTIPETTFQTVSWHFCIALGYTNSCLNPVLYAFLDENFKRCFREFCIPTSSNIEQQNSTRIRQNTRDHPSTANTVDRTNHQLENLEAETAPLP
Text: as §1, §2

[38] = target: NET (Homo sapiens, UniProt P23975); assay: PDSP radioligand binding assay; conditions: read-out: RLBA Ki
Text: as §1, §2

[39] = target: PBR (Rattus norvegicus, UniProt P16257); assay: PDSP radioligand binding assay; conditions: read-out: RLBA Ki
Text: as §1, §2

For `Clc1nnc2ccc(Oc3ccccc3-c3ccccc3)nn12` [STL1267], the “effect of mutation on STL1267 induced REV-ERBα/NCoR interaction” value [1] was “loss or severe reduction in activity”, the Ki [2] was > 10 µM and the Ki [3] was > 10 µM. The Ki [4] was > 10 µM, the Ki [5] was > 10 µM and the Ki [6] was > 10 µM. The Ki [7] was > 10 µM, the Ki [8] was > 10 µM and the Ki [9] was > 10 µM. The Ki [10] was > 10 µM, the Ki [11] was > 10 µM and the Ki [12] was > 10 µM. The Ki [13] was > 10 µM, the Ki [14] was > 10 µM and the Ki [15] was > 10 µM. For the same compound, the Ki [16] was > 10 µM, the Ki [17] was > 10 µM and the Ki [18] was > 10 µM. The Ki [19] was > 10 µM, the Ki [20] was > 10 µM and the Ki [21] was > 10 µM. The Ki [22] was > 10 µM, the Ki [23] was > 10 µM and the Ki [24] was > 10 µM. For the same compound, the Ki [25] was > 10 µM, the Ki [26] was > 10 µM and the Ki [27] was > 10 µM. For the same compound, the Ki [28] was > 10 µM, the Ki [29] was > 10 µM and the Ki [30] was > 10 µM. The Ki [31] was > 10 µM, the Ki [32] was > 10 µM and the Ki [33] was > 10 µM. The Ki [34] was > 10 µM, the Ki [35] was > 10 µM and the Ki [36] was > 10 µM. For the same compound, the Ki [37] was > 10 µM, the Ki [38] was > 10 µM and the Ki [39] was > 10 µM.
